In patent publication US20260191900A1, “Biofilm Treatment” (Phytoceutical Limited, priority 2022, published 2026):
In brackets after ≈: the same amount, converted by molar mass.

Experiments:
[1] = test system: S. aureus (NCTC12493; MRSA); test: MIC, broth microdilution; assay type: cell-based, Staphylococcus aureus; details: for MIC: Staphylococcus aureus
Protocol: (§1) Staphylococcus aureus (NCTC12493; MRSA) and Pseudomonas aeruginosa (NCTC12903) were stored in Pro-Lab Diagnostics Microbank (Fisher, Basingstoke UK) tubes at −80° C. before streaking onto Nutrient Agar (Oxoid, Basingstoke, UK) and incubated at 37° C., aerobically for 18 hours.
(§2) Minimum inhibitory concentrations (MICs) were determined using the broth microdilution method (EUCAST, Clinical Microbiology and Infection (2003), 9(8)). The inoculated liquid culture (grown dynamically overnight at 37° C. in MHB) was adjusted to obtain a ~0.1 OD at 600 nm, equivalent to a 0.5 McFarland Standard. A range of concentrations (diluted in MHB) for each of the compounds were prepared in 96-well plates, followed by the addition of the inoculated media. The plates were then incubated statically for 18 hours at 37° C. Following the incubation period, the lowest concentration of compound presenting an inhibition of bacterial growth was labelled the MIC.

[2] = test system: P. aeruginosa (NCTC12903); test: MIC, broth microdilution; assay type: cell-based, Pseudomonas aeruginosa; details: for MIC: Pseudomonas aeruginosa, NCTC12903
Protocol: as §1, §2

[3] = test system: S. aureus (NCTC12493) biofilm; test: Crystal violet biofilm clearance assay; assay type: cell-based, Staphylococcus aureus; details: for amount of biofilm present after treatment (CV stain, OD 600 nm): FIG. 2, 0.000625% PHMB, 10% TPGS, 10% EM, 6.25% EtOH, dosed at day 0 to 7, 24 hours, vs untreated control; for percentage biofilm remaining / amount of biofilm remaining: FIG. 3, 0.1% PHMB, 10% TPGS or both; for percentage biofilm remaining: treated at day 0; for amount of biofilm remaining: treatment at day 1, 2 or 3
Protocol: as §1
(§3) The two strains of bacteria were produced using different media, with no flocculation occurring. S. aureus was produced using Dulbecco's Modified Eagle Medium and took five to seven days to grow a mature biofilm. P. aeruginosa was produced using M9 minimal media and 1% glucose media and took three days to grow a mature biofilm. Alternatively, Luria-Bertani (LB) broth could be used to grow P. aeruginosa.
(§4) The biofilm growth method and visualisation/analysis techniques were followed from J. Merritt et al. (Curr Protoc Microbiol. (2005); Chapter 1:Unit 1B.1), with modifications. S. aureus (NCTC12493) was grown in DMEM and P. aeruginosa (NCTC12903) was grown in M9 minimal media+1% glucose. Inoculated liquid culture was diluted in 1:100 in their respective medias. Into 96-well plates, 100 μL of the inoculant was added to each well. Following this, the plate was covered with a lid and incubated at 37° C. for 24-hour intervals of up to 7 days, aerobically. The compounds were added and incubated at 37° C. for a further 24 hours. Planktonic bacteria were removed using a pipette, and the biofilms were washed with Milli-Q water. To each well, 125 μL of 0.1% crystal violet (CV) solution was added and left at room temperature for 10-15 minutes. After this, the 0.1% CV solution was removed, and the well was washed until the waste ran clear. The stain was left to air-dry, before 200 μL 30% acetic acid was added to each well for 15 minutes on a plate shaker. To a new 96-well plate, 125 μL stained biofilm solution was transferred and the optical density was read at 600 nm. A comparison was made between the uninhibited biofilm and any biofilm reductions capabilities of the added compounds.
(§5) The candidate compounds were each, therefore, applied at their respective MIC values.
(§6) Bacterial growth kinetics of S. aureus grown in DMEM and P. aeruginosa grown in M9 minimal media+1% glucose were determined. The amount of biofilm remaining was determined using the CV staining method as described above.

[4] = test system: P. aeruginosa (NCTC12903) biofilm; test: Crystal violet biofilm clearance assay; assay type: cell-based, Pseudomonas aeruginosa; details: for amount of biofilm present after treatment (CV stain, OD 600 nm): FIG. 2, 0.000625% PHMB, 10% TPGS, 10% EM, 6.25% EtOH, dosed at different days, 24 hours, vs untreated control; for percentage biofilm remaining / amount of biofilm remaining: FIG. 3, 0.1% PHMB, 10% TPGS or both; for percentage biofilm remaining: treated at day 0; for amount of biofilm remaining: treatment at day 1, 2 or 3
Protocol: as §1, §3, §4, §5, §6

S. aureus (NCTC12493) = test: CFU count after treatment of biofilm; assay type: cell-based, Staphylococcus aureus; details: FIG. 3; 10% TPGS or 0.1% PHMB with 10% TPGS; treated on any day
Protocol: (§7) The amount of biofilm remaining was determined using the CV staining method as described above. CFU count was determined by the following method: The inoculated liquid culture (grown dynamically overnight at 37° C. in liquid growth media) was spun down in a centrifuged (at max (13.3) speed for 5 minutes) (reference). The supernatant was removed and resuspend in PBS (1:100 dilution). Into each well, 20 μL of inoculated culture LB broth was added to 180 μL LB broth. […] For the untreated wells, 1 μL of PBS was added. The 96-well plate was placed in a TECAN measuring at OD600 over 24 hours at 15-minute intervals. Resulting growth kinetic experiments were conducted using mid-logarithmically growing cultures. […] Following this, the wells were homogenised, and 20 μL samples were plate spotted onto nutrient agar (NA). These plates were incubated for 18 hours at 37° C. before colonies were counted.

[5] = test system: P. aeruginosa (NCTC12903); test: CFU count after treatment of biofilm; assay type: cell-based, Pseudomonas aeruginosa; details: FIG. 3; 10% TPGS or 0.1% PHMB with 10% TPGS; treated on any day
Protocol: as §7

[6] = Ex-vivo skin penetration, Franz diffusion cells, SRS imaging; assay type: in vitro ADME, pig
Protocol: Skin penetration studies were performed on dermatomed porcine skin, dosed using vertical Franz diffusion cells.
A scalpel was used to cut each Franz cell disc into a smaller portion for sectioning, and was sanitised with ethanol between samples. A fresh cryostat blade was used for each sample. The cryostat temperature was set to −33° C., and samples equilibrated in the cryostat for approximately 45 minutes prior to sectioning.
After 24 hours, the skin surface was cleaned and cross-sections 30 μm thick were prepared using cryosectioning and mounted onto glass coverslips. SRS (stimulated raman spectroscopy) imaging was used to observe the penetration of the composition through the skin.
SRS imaging used a Leica SP8 microscope with SRS and CARS. A PicoEmerald-S laser system output two pulsed 2 ps laser beams (a 1031 nm Stokes beam spatially and temporally overlapped with a tuneable pump beam). The Stokes beam was modulated at 20 MHz and stimulated Raman loss signals were detected in transmission using a lock-in amplifier (UHFLI, Zurich instruments). CARS and SHG/fluorescence signals were epi-detected in separate PMT channels. A water immersion×25 magnification lens (0.95 NA, Leica) was used. A short working distance air condenser (0.9 NA, Leica) was used. Laser power was 30%, which corresponded to approximately 10 mW for the pump beam and 30 mW for the Stokes beam at the sample. […]

Fibroblasts [7] = test: SRS-SHG microscopy of fibroblasts exposed to retinol; assay type: cell-based; details: 0.31 μg/mL or 0.25 μg/mL; days 1, 3 and 7
Protocol: Fibroblasts were exposed to compositions containing 0.31 μg/mL or 0.25 μg/mL, and a control sample with no retinol, over a period of 7 days. SRS-SHG microscopy was used to determine absorption of the retinol by the fibroblasts at days 1, 3 and 7 after exposure.

Fibroblasts [8] = test: Toxicity of retinol to fibroblasts; assay type: cell-based
[9] = concentration before inoculation, 18 hours at 37° C., vehicle ethanol, water or none
[10] = concentration before inoculation, 18 hours at 37° C., vehicle ethanol or water
[11] = vehicle TPGS (curcumin solubilised in TPGS)

Molecule	MIC, S. aureus [1, 9]	MIC, P. aeruginosa [2, 9]	concentration inhibiting S. aureus growth (MIC) [1]	concentration inhibiting P. aeruginosa growth (MIC) [2]	amount of biofilm present after treatment (CV stain, OD 600 nm) [3]	percentage biofilm remaining [3]	amount of biofilm remaining [3]	amount of biofilm present after treatment (CV stain, OD 600 nm) [4]	percentage biofilm remaining [4]	amount of biofilm remaining [4]	MIC [1, 10]	MIC [2, 10]	other results
Polysorbate 40	>25% w/v %	>25% w/v %	–	–	–	–	–	–	–	–	–	–	–
polyhexamethylene biguanide [PHMB]	0.000625 w/v %	0.005 w/v %	0.000625 % v/v	0.005 % v/v	good biofilm clearance	fully reducing the biofilm remaining	effective	an increase in biofilm when dosed on T1	fully reducing the biofilm remaining	effective	–	–	–
CCO [Ethanol]	6.25 w/v %	6.25 w/v %	–	–	at TO there was an increase in biofilm	–	–	little to no effect	–	–	–	–	–
COc1cc(/C=C/C(=O)CC(=O)/C=C/c2ccc(O)c(OC)c2)ccc1O [Curcumin]	0.2 w/v %	0.2 w/v %	–	–	–	–	–	–	–	–	2 mg/mL (≈ 5.43 mM)	2 mg/mL (≈ 5.43 mM)	MIC, S. aureus [1, 11]: 0.0125 w/v %; MIC, P. aeruginosa [2, 11]: 0.1 w/v %
tocopheryl polyethylene glycol succinate [TPGS]	20 w/v %	20 w/v %	10 % v/v	20 % v/v	a reduction in the amount of biofilm present	fully reducing the biofilm remaining	effective	the most effective compound	fully reducing the biofilm remaining	effective	–	–	MIC, S. aureus [1, 10]: (200) mg/mL; MIC, P. aeruginosa [2, 10]: (200) mg/mL; CFU count (S. aureus (NCTC12493)): remained substantially constant; CFU count [5]: remained substantially constant
CC1=C(/C=C/C(C)=C/C=C/C(C)=C/CO)C(C)(C)CCC1 [Retinol]	5 w/v %	5 w/v %	–	–	–	–	–	–	–	–	50 mg/mL (≈ 175 mM)	50 mg/mL (≈ 175 mM)	depth through the skin down to which retinol was observed ([6]; composition comprising retinol and TPGS applied to pig skin for 24 hours): 60 μm; penetration of the retinol into the skin ([6]; similar experiment, composition including PHMB (1 wt %)): did not show penetration; response of fibroblasts (SHG signals outside of nuclei) (Fibroblasts [7]): concentration and time dependent response; concentration not toxic to fibroblasts (Fibroblasts [8]): ≤ 6 µg/mL
